Reference: publication PMC6985722 (Antimicrobial Agents and Chemotherapy, 2020)
Values joined by “and” are separate entries in the source; they are usually repeats but may differ in a detail not shown here. Equal entries are not always repeated.

Assay: RSV human challenge study: safety (adverse events, clinical and laboratory tests, ECG)
Format: in vivo
Settings: for TEAE Abdominal discomfort / TEAE Abdominal distention / TEAE Abdominal pain (Table 4) / TEAE Abdominal pain (Table S4, listed apart from Abdominal pain lower) / TEAE Abdominal pain lower / TEAE Blood and lymphatic system disorders / TEAE Cardiac disorders / TEAE Catheter site erythema / TEAE Catheter site paraesthesia / TEAE Decreased appetite / TEAE Diarrhea / TEAE Dizziness / TEAE Epistaxis / TEAE Eye disorders / TEAE Eye pain / TEAE Food poisoning / TEAE Gastroenteritis / TEAE Gastrointestinal disorders / TEAE General disorders and administration site conditions / TEAE Headache / TEAE Hypoaesthesia / TEAE Infections and infestations / TEAE Injury, poisoning and procedural complications / TEAE Joint injury / TEAE Lip dry / TEAE Lymphadenopathy / TEAE Metabolism and nutrition disorders / TEAE Musculoskeletal and connective tissue disorders / TEAE Musculoskeletal pain / TEAE Myalgia / TEAE Myocarditis / TEAE Nausea / TEAE Nervous system disorders / TEAE Ocular hyperemia / TEAE Oropharyngeal pain / TEAE Pain in jaw / TEAE Pyrexia / TEAE Rash / TEAE Respiratory, thoracic and mediastinal disorders / TEAE Rhinitis / TEAE Skin abrasion / TEAE Skin and subcutaneous tissue disorders / TEAE Tension headache / TEAE Total / TEAE URTI / TEAE Vessel puncture site erythema / TEAE Viral URTI / TEAE Vomiting: safety analysis set
Excerpt: Twice-daily collection of nasal wash samples allowed measurement of viral load via RT-qPCR and quantitative culture. RT-qPCR results were reported as PFUe/ml when the standard curve included in each assay contained a known infectious amount (PFU) of RSV, as described previously ([30]). Subjects reported the occurrence and severity of symptoms three times daily using a 10-item subject symptom diary card as previously reported ([12]) (see Supplemental Methods). Throughout the quarantine period, used tissues were collected and weighed daily, and total nasal mucus weight was recorded. PK assessments were based on venous blood samples. Safety assessments included measurement of vital signs, standard 12-lead ECG recordings, spirometry, a complete physical examination, and a respiratory-directed physical examination. AEs were monitored daily, coded according to the Medical Dictionary for Regulatory Activities Version 20.0, and graded according to the National Cancer Institute Common Terminology Criteria for Adverse Events Version 4.0 (see Supplemental Methods for further details).
The primary efficacy analysis population (the ITT-I analysis set) comprised all randomized subjects who received challenge virus and at least one dose of study drug and met the criterion for laboratory-confirmed RSV infection (presence of detectable RSV). Sensitivity analyses were based on a subset of the ITT-I population who had first detectable RSV infection prior to study drug administration (the ITT-A analysis set) and a fixed time period of 6.5 days (comprising data for all subjects for 6.5 days of evaluation after the first dose, regardless of the staggered commencement of dosing). The safety analysis set comprised all subjects who received challenge virus; the PK analysis set comprised all subjects who received the challenge virus and provided at least one postdose PK result. […]
unexpected, in the opinion of the investigator, were captured as AEs. Following the viral challenge, upper and lower respiratory tract symptoms identified by the directed physical examination were expected, presumed to represent virus infection consequent to viral challenge and not captured as an AE unless they met the criteria for an AE and were deemed clinically significant in the opinion of the investigator. AEs were monitored daily from screening (day –2) through to the follow -up visit (day 28) and coded to system organ class and preferred term according to the Medical Dictionary for Regulatory Activities Version
20.0. AEs were graded according to the National Cancer Institute Common Terminology Criteria for Adverse Events Version 4.0, andthe relationship to the investigational medical product or to challenge virus was recorded. An AE with an onset date/time after […]
that were considered by the investigator to be causally related to challenge virus can be included in the analysis of AEs.
Outcomes. Safety outcomes included the occurrence of AEs. PK outcomes included the maximum plasma concentration, the minimum plasma concentration, the time to maximum plasma concentration, and the area under the plasma concentration-time curve with a dosing interval, calculated by the linear trapezoidal rule.

NCc1ccc2c(c1)nc(CN1C(=O)C3(CC3)c3ccc(F)cc31)n2CCCC(F)(F)F [RV521]
Grade 2 TEAEs, number of events (200 mg): 2
Subjects with gastrointestinal TEAEs (200 mg): 32%
Subjects with grade 2 TEAEs (200 mg): 2 subjects
Treatment-emergent AEs, number of events (200 mg): 19
Clinical or laboratory tests (vital signs, liver enzymes) vs placebo (200 mg and 350 mg): No notable differences
ECG findings (200 mg and 350 mg): no clinically significant ECG findings
TEAEs of grade ≥3 (200 mg and 350 mg): no TEAEs of grade ≥3
TEAE Abdominal discomfort (200 mg): 0 number of subjects (%)
TEAE Abdominal distention (200 mg): 0 number of subjects (%)
TEAE Abdominal pain (Table 4) (200 mg): 2 (9) No. of subjects (%)
TEAE Abdominal pain (Table S4, listed apart from Abdominal pain lower) (200 mg): 2 (9) number of subjects (%)
TEAE Abdominal pain lower (200 mg): 0 number of subjects (%)
TEAE Blood and lymphatic system disorders (200 mg): 0 number of subjects (%)
TEAE Cardiac disorders (200 mg): 0 number of subjects (%)
TEAE Catheter site erythema (200 mg): 0 number of subjects (%)
TEAE Catheter site paraesthesia (200 mg): 1 (5) number of subjects (%)
TEAE Decreased appetite (200 mg): 1 (5) number of subjects (%)
TEAE Diarrhea (200 mg): 3 (14) No. of subjects (%)
TEAE Dizziness (200 mg): 1 (5) number of subjects (%)
TEAE Epistaxis (200 mg): 1 (5) number of subjects (%)
TEAE Eye disorders (200 mg): 0 number of subjects (%)
TEAE Eye pain (200 mg): 0 number of subjects (%)
TEAE Food poisoning (200 mg): 1 (5) number of subjects (%)
TEAE Gastroenteritis (200 mg): 0 number of subjects (%)
TEAE Gastrointestinal disorders (200 mg): 7 (32) number of subjects (%)
TEAE General disorders and administration site conditions (200 mg): 1 (5) number of subjects (%)
TEAE Headache (200 mg): 0 No. of subjects (%)
TEAE Hypoaesthesia (200 mg): 1 (5) number of subjects (%)
TEAE Infections and infestations (200 mg): 3 (14) number of subjects (%)
TEAE Injury, poisoning and procedural complications (200 mg): 1 (5) number of subjects (%)
TEAE Joint injury (200 mg): 0 number of subjects (%)
TEAE Lip dry (200 mg): 0 number of subjects (%)
TEAE Lymphadenopathy (200 mg): 0 number of subjects (%)
TEAE Metabolism and nutrition disorders (200 mg): 1 (5) number of subjects (%)
TEAE Musculoskeletal and connective tissue disorders (200 mg): 0 number of subjects (%)
TEAE Musculoskeletal pain (200 mg): 0 number of subjects (%)
TEAE Myalgia (200 mg): 0 number of subjects (%)
TEAE Myocarditis (200 mg): 0 number of subjects (%)
TEAE Nausea (200 mg): 2 (9) No. of subjects (%)
TEAE Nervous system disorders (200 mg): 2 (9) number of subjects (%)
TEAE Ocular hyperemia (200 mg): 0 number of subjects (%)
TEAE Oropharyngeal pain (200 mg): 0 number of subjects (%)
TEAE Pain in jaw (200 mg): 0 number of subjects (%)
TEAE Pyrexia (200 mg): 0 number of subjects (%)
TEAE Rash (200 mg): 0 No. of subjects (%)
TEAE Respiratory, thoracic and mediastinal disorders (200 mg): 1 (5) number of subjects (%)
TEAE Rhinitis (200 mg): 1 (5) No. of subjects (%)
TEAE Skin abrasion (200 mg): 1 (5) number of subjects (%)
TEAE Skin and subcutaneous tissue disorders (200 mg): 1 (5) number of subjects (%)
TEAE Tension headache (200 mg): 0 number of subjects (%)
TEAE Total (200 mg): 11 (50) number of subjects (%) and 11 number of subjects (%)
TEAE URTI (200 mg): 2 (9) No. of subjects (%)
TEAE Vessel puncture site erythema (200 mg): 0 number of subjects (%)
TEAE Viral URTI (200 mg): 0 No. of subjects (%)
TEAE Vomiting (200 mg): 1 (5) No. of subjects (%)
Grade 2 TEAEs, number of events (350 mg): 4
Subjects with gastrointestinal TEAEs (350 mg): 59%
Subjects with grade 2 TEAEs (350 mg): 3 subjects
TEAE Abdominal discomfort (350 mg): 1 (5) number of subjects (%)
TEAE Abdominal distention (350 mg): 1 (5) number of subjects (%)
TEAE Abdominal pain (Table 4) (350 mg): 5 (23) No. of subjects (%)
TEAE Abdominal pain (Table S4, listed apart from Abdominal pain lower) (350 mg): 4 (18) number of subjects (%)
TEAE Abdominal pain lower (350 mg): 1 (5) number of subjects (%)
TEAE Blood and lymphatic system disorders (350 mg): 0 number of subjects (%)
TEAE Cardiac disorders (350 mg): 0 number of subjects (%)
TEAE Catheter site erythema (350 mg): 1 (5) number of subjects (%)
TEAE Catheter site paraesthesia (350 mg): 0 number of subjects (%)
TEAE Decreased appetite (350 mg): 0 number of subjects (%)
TEAE Diarrhea (350 mg): 9 (41) No. of subjects (%)
TEAE Dizziness (350 mg): 1 (5) number of subjects (%)
TEAE Epistaxis (350 mg): 0 number of subjects (%)
TEAE Eye disorders (350 mg): 0 number of subjects (%)
TEAE Eye pain (350 mg): 0 number of subjects (%)
TEAE Food poisoning (350 mg): 0 number of subjects (%)
TEAE Gastroenteritis (350 mg): 1 (5) number of subjects (%)
TEAE Gastrointestinal disorders (350 mg): 13 (59) number of subjects (%)
TEAE General disorders and administration site conditions (350 mg): 1 (5) number of subjects (%)
TEAE Headache (350 mg): 0 No. of subjects (%)
TEAE Hypoaesthesia (350 mg): 0 number of subjects (%)
TEAE Infections and infestations (350 mg): 5 (23) number of subjects (%)
TEAE Injury, poisoning and procedural complications (350 mg): 0 number of subjects (%)
TEAE Joint injury (350 mg): 0 number of subjects (%)
TEAE Lip dry (350 mg): 1 (5) number of subjects (%)
TEAE Lymphadenopathy (350 mg): 0 number of subjects (%)
TEAE Metabolism and nutrition disorders (350 mg): 0 number of subjects (%)
TEAE Musculoskeletal and connective tissue disorders (350 mg): 1 (5) number of subjects (%)
TEAE Musculoskeletal pain (350 mg): 0 number of subjects (%)
TEAE Myalgia (350 mg): 1 (5) number of subjects (%)
TEAE Myocarditis (350 mg): 0 number of subjects (%)
TEAE Nausea (350 mg): 12 (55) No. of subjects (%)
TEAE Nervous system disorders (350 mg): 1 (5) number of subjects (%)
TEAE Ocular hyperemia (350 mg): 0 number of subjects (%)
TEAE Oropharyngeal pain (350 mg): 0 number of subjects (%)
TEAE Pain in jaw (350 mg): 0 number of subjects (%)
TEAE Pyrexia (350 mg): 0 number of subjects (%)
TEAE Rash (350 mg): 0 No. of subjects (%)
TEAE Respiratory, thoracic and mediastinal disorders (350 mg): 0 number of subjects (%)
TEAE Rhinitis (350 mg): 2 (9) No. of subjects (%)
TEAE Skin abrasion (350 mg): 0 number of subjects (%)
TEAE Skin and subcutaneous tissue disorders (350 mg): 1 (5) number of subjects (%)
TEAE Tension headache (350 mg): 0 number of subjects (%)
TEAE Total (350 mg): 16 (73) number of subjects (%)
TEAE URTI (350 mg): 0 No. of subjects (%)
TEAE Vessel puncture site erythema (350 mg): 0 number of subjects (%)
TEAE Viral URTI (350 mg): 2 (9) No. of subjects (%)
TEAE Vomiting (350 mg): 2 (9) No. of subjects (%)
Treatment-related SAEs, deaths, or discontinuations due to AEs (any treatment group): No treatment-related serious adverse events (SAEs), deaths, or discontinuations due to AEs
